# Several values for one entry are separate records, joined by “and”; a condition that tells them apart may be missing. Identical values can stand only once. Like-named read-outs stand apart in the source and are kept apart here.
# Legend:
# SARS-CoV-2 M^pro [1] = molecular target: T1, SARS-CoV-2 M^pro (Severe acute respiratory syndrome coronavirus 2, UniProt P0DTD1); test: Mpro substrate cleavage by gel electrophoresis (SDS-PAGE) and densitometry; format: biochemical; settings: normalized gel densitometry data (red values of Figure 2D); read-out: IC50 against Mpro, gel electrophoresis and densitometry
# in vitro = settings: African green monkey
# [2] = system: SARS-CoV-2 expressing the mNeon reporter gene; test: microbe, parasite or virus in culture; format: cell-based; settings: read-out: IC50 against SARS-CoV-2
# Mpro = settings: slightly shorter fluorogenic substrate; ref Li et al., 2020; read-out: IC50 as Mpro inhibitor (literature); cited from earlier work
# SARS-CoV-2 M^pro [3] = molecular target: T1, SARS-CoV-2 M^pro; test: biochemical; parameters: inhibition: dose or concentration left out as unconfirmed
structure (smiles),measurement,setting,value
CCOc1nc2cccc(C(=O)OC(C)OC(=O)OC3CCCCC3)c2n1Cc1ccc(-c2ccccc2-c2nnn[nH]2)cc1 (centres unmarked) [Candesartan Cilexetil],IC50,SARS-CoV-2 M^pro [1],77.1 µM
same,CC50,in vitro,> 100 µM
same,IC50,"[2]; Severe acute respiratory syndrome coronavirus 2, Vero, 18 h",~10 µM
same,IC50,[2],10.4 µM
same,IC50,Mpro,2.8 µM
same,inhibition,"SARS-CoV-2 M^pro [3]; initial screen, Table S4, read-out: Normalized Percent FRET inhibition",153%
same,IC50,"SARS-CoV-2 M^pro [3]; normalized FRET data, technical duplicates, end-point about 4 h, read-out: IC50 against Mpro, FRET values",~67 µM and 67.4 µM
same,inhibition of the activity of Mpro in secondary screen,SARS-CoV-2 M^pro [3]; re-screen at 100 μM,completely inhibit

# — paper PMC8315004, “Discovery of Small-Molecule Inhibitors of SARS-CoV-2 Proteins Using a Computational and Experimental Pipeline” (Frontiers in Molecular Biosciences, 2021)
